pIC50: −log10 of the molar value.
Legend:
OVX-induced osteopenia = assay: Assay 1: bone mass / BMD protection in OVX rats; format: in vivo, SD rats; details: for BMD % (protection) / OVX-induced osteopenia: OVX rats, 35 day treatment; for OVX-induced osteopenia / bone density: result in words; for bone density: OVX/hypophysectomized (HYPOX) rats
Experimental: (§1) Six month old, virgin SD rats are OVX or OVX/hypophysectomized (HYPOX) and treated with vehicle (20% cyclodextrin, PO), raloxifene (0.1 to 10 mg/kg/day, PO) or ethynyl estradiol EE2; 0.001 to 0.1 mg/kg/day, PO). A sham, vehicle treated control is also included. Serum and/or long bones are collected after a 35 day or shorter treatment period. Serum cytokine determinations are performed by bioassay.
(§2) No consistent changes in other serum cytokines is detected.

IL-6 [1] = assay: Assay 1: serum IL-6 in OVX rats (bioassay); format: in vivo, SD rats
Experimental: as §1, §2

[2] = system: LIF stimulated cell proliferation (B9 hybridoma); assay: Assay 3: cytokine dependent cell proliferation, LIF; format: cell-based; details: Mus musculus; 50% inhibition of LIF dependent cell proliferation; 0.01 to 1 µM tested
Experimental: (§3) The following mouse cell lines were used for cytokine bioassays: CTLL.6 cytolytic T cell - IL-2, IL-4; 11.6 helper T cell - IL-4; T1165.17 plasmacytoma - IL-1, IL-6; B9 hybridoma - IL-6, LIF (leukemia inhibitory factor). Approximately 5,000 cells are seeded per duplicate well in 96-well flat-bottom microtiter plates in standard tissue culture medium (i.e. Iscove's Modified Dulbecco's Medium or Dulbecco's Modified Eagle's Medium supplemented with 25 mM Hepes, 2 mM L-glutamine, 50 µM 2-mercaptoethanol, 50 units/ml penicillin, 50 µg/ml streptomycin sulfate, and fetal bovine serum) containing vehicle (DMSO), raloxifene (0.01 to 1 µM) or 17-b-estradiol (0.01 to 1 µM) in the absence or presence of the indicated recombinant cytokine. Microtiter plates are incubated at 37°C in a humidified 10% CO2 incubator for 24 to 72 hours. At the end of that time, either 1 µCi 3H-thymidine or 100 µg of MTT (3-[4,5-dimethylthiazol-2-yl]-2,5-diphenyltetrazolium bromide) is added per well followed by an additional 4 to 6 hours of incubation. Microcultures pulsed using tritiated thymidine are harvested onto filter pads and counted by liquid scintillation. […] Optical density readings are taken at 570 nm with a reference wavelength of 690 nm to quantitate cell proliferation. […]

[3] = system: IL-4 stimulated proliferation (CTLL.6 cytolytic T cell; 11.6 helper T cell); assay: Assay 3: cytokine dependent cell proliferation, IL-4; format: cell-based; details: Mus musculus, 50% inhibition of IL-4 dependent cell proliferation, 0.01 to 1 µM tested
Experimental: as §3

[4] = system: IL-6 stimulated cell proliferation (T1165.17 plasmacytoma; B9 hybridoma); assay: Assay 3: cytokine dependent cell proliferation, IL-6; format: cell-based; details: Mus musculus; 50% inhibition of IL-6 dependent cell proliferation; 0.01 to 1 µM tested
Experimental: as §3

[5] = system: IL-2 stimulated proliferation (CTLL.6 cytolytic T cell); assay: Assay 3: cytokine dependent cell proliferation, IL-2; format: cell-based; details: Mus musculus, 50% inhibition of IL-2 dependent cell proliferation, 0.01 to 1 µM tested
Experimental: as §3

IL-6 [6] = assay: Assay 2: IL-1-induced serum IL-6 in mice (ELISA); format: in vivo; details: male BALB/c mice, 1 mg/kg PO for 3 days, then IL-1b 3 ug SC, 2 hours
Experimental: Ten week old male BALB/c mice are treated with vehicle (20% cyclodextrin, PO) or raloxifene (1 mg/kg, PO) for 3 days. On day 4, mice are treated with vehicle (saline, IP), LA-15.1 anti-IL-1 receptor monoclonal antibody (mAb) (250 ug, IP) or human recombinant IL-1b (3 ug, SC). After 2 hours, serum was collected by orbital sinus puncture and IL-6 levels quantitated by ELISA.
Injection of IL-1 into cyclodextrin treated mice induces a significant increase in serum IL-6 (193 ± 29 ng/ml) versus saline injected cyclodextrin treated mice (<1 ng/ml) (Table 2). […] The anti-IL-1 receptor mAb LA-15.1 completely attenuates the IL-1-induced rise in serum IL-6 levels.

[7] = OVX rats, 100 µg/kg, 35 day treatment
[8] = OVX rats, 35 day treatment, PO, result in words
[9] = animals treated for as few as four days post-OVX, result in words

## C#C[C@]1(O)CC[C@H]2[C@@H]3CCc4cc(O)ccc4[C@H]3CC[C@@]21C [Ethy, ethynyl estradiol]
OVX-induced osteopenia; 1 µg/kg
  BMD % (protection): 5.28 ± 11.83%
OVX-induced osteopenia; 10 µg/kg
  BMD % (protection): 57.25 ± 16.07%
OVX-induced osteopenia; 100 µg/kg
  BMD % (protection): 76.00 ± 18.3%
OVX-induced osteopenia; PO
  OVX-induced osteopenia: significantly attenuate
OVX-induced osteopenia
  bone density: did not respond
IL-6 [1]; OVX rats, 1 µg/kg, 35 day treatment
  Serum IL-6: 3.42 ± 2.23 ng/mL
IL-6 [1]; OVX rats, 10 µg/kg, 35 day treatment
  Serum IL-6: 1.84 ± 0.60 ng/mL
IL-6 [1]; [7]
  Serum IL-6: 0.20 ± 0.10 ng/mL
IL-6 [1]; [8]
  rise in serum IL-6 levels: significantly attenuate
IL-6 [1]; [9]
  Serum IL-6: significant reduction

## C[C@]12CC[C@@H]3c4ccc(O)cc4CC[C@H]3[C@@H]1CC[C@@H]2O [17-β-E2, 17-b-estradiol]
OVX-induced osteopenia; 100 µg/kg
  BMD % (protection): 106.4 ± 11.8%
[2]
  pIC50: < 6.00
[3]
  pIC50: < 6.00
[4]
  pIC50: < 6.00
[5]
  pIC50: < 6.00
IL-6 [1]; [7]
  Serum IL-6: 0.07 ± 0.10 ng/mL

## O=C(c1ccc(OCCN2CCCCC2)cc1)c1c(-c2ccc(O)cc2)sc2cc(O)ccc12 [Raloxifene]
OVX-induced osteopenia; 0.1 mg.kg, PO
  BMD % (protection): 63.88 ± 19.8%
OVX-induced osteopenia; 1 mg/kg, PO
  BMD % (protection): 82.50 ± 17.17%
OVX-induced osteopenia; 10 mg/kg, PO
  BMD % (protection): 82.09 ± 7.02%
OVX-induced osteopenia; PO
  OVX-induced osteopenia: significantly attenuate
OVX-induced osteopenia
  bone density: did not respond
[2]
  pIC50: 6.22
[3]
  pIC50: < 6.00
[4]
  pIC50: 6.14
IL-6 [6]; 1 mg/kg
  IL-6: 90 ± 21 ng/mL
IL-6 [6]; listed as 139478, 1 mg/kg
  IL-6: 90 ± 2.1 ng/mL
[5]
  pIC50: < 6.00
IL-6 [1]; OVX rats, 0.1 mg.kg, PO, 35 day treatment
  Serum IL-6: 4.32 ± 1.65 ng/mL
IL-6 [1]; OVX rats, 1 mg/kg, PO, 35 day treatment
  Serum IL-6: 1.55 ± 0.48 ng/mL
IL-6 [1]; OVX rats, 10 mg/kg, PO, 35 day treatment
  Serum IL-6: 1.23 ± 0.45 ng/mL
IL-6 [1]; [8]
  rise in serum IL-6 levels: significantly attenuate
IL-6 [1]; [9]
  Serum IL-6: significant reduction

Source: EP0724879A2, “2-Phenyl-3-azoylbenzothiopenes for inhibiting effects of IL-6” (ELI LILLY AND COMPANY, priority 1995, dated 1996)
